Assay results taken from ChEMBL document CHEMBL1201862, “PubChem BioAssay data set” (2004).
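Exposure lasted 48 hours, with cells grown in 96-well plates and compounds tested at five concentrations. GI50 marks 50% less growth.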 Activity calls are given as the source filed them. Rule as the data show it: active = GI50 up to about 1.1 µM and inactive = higher. *1 amine or outer side, *2 acyl side, *3 side chain or, on linkers, in order; H or OH if unused. Where a SMILES comes first, the peptide text is derived from it. [ ]: non-standard residue; d: D form. The star is where a group is joined. X31 = CC(=O)N(C)SCC(N[*:1])C(=O)[*:2]; Fmoc = O=C(OCC1c2ccccc2-c2ccccc21)*; For = O=C*

How the values were obtained:
Assay in all cases: NCI anticancer screen, dose series, 48 h
OVCAR-5 = test system: OVCAR-5
DU-145 = test system: DU-145
A498 = test system: A498
MDA-MB-231 = test system: MDA-MB-231
MOLT-4 = test system: MOLT-4
EKVX = test system: EKVX
OVCAR-8 = test system: OVCAR-8
IGROV-1 = test system: IGROV-1
HCT-116 = test system: HCT-116
K562 = test system: K562
CCRF-CEM = test system: CCRF-CEM
NCI/ADR-RES = test system: NCI/ADR-RES
NCI-H522 = test system: NCI-H522
UO-31 = test system: UO-31
OVCAR-3 = test system: OVCAR-3
Hs-578T = test system: Hs-578T
NCI-H460 = test system: NCI-H460
SN12C = test system: SN12C
SR = test system: SR
Malme-3M = test system: Malme-3M

| Compound | GI50 (OVCAR-5) | GI50 (DU-145) | GI50 (A498) | GI50 (MDA-MB-231) | GI50 (MOLT-4) | GI50 (EKVX) | GI50 (OVCAR-8) | GI50 (IGROV-1) | GI50 (HCT-116) | GI50 (K562) | GI50 (CCRF-CEM) | GI50 (NCI/ADR-RES) | GI50 (NCI-H522) | GI50 (UO-31) | GI50 (OVCAR-3) | GI50 (Hs-578T) | GI50 (NCI-H460) | GI50 (SN12C) | GI50 (SR) | GI50 (Malme-3M) |
| --- | --- | --- | --- | --- | --- | --- | --- | --- | --- | --- | --- | --- | --- | --- | --- | --- | --- | --- | --- | --- |
| CC(C)=CC(=O)OC1C2C(C)=CC(=O)C(O)C2(C)C2C3(O)OCC24C(CC(=O)OC14)C(C)C3O (stereo not drawn) | 0.0101 µM (active) | 0.00354 µM (active) | 0.117 µM (active) | 0.0168 µM (active) | 0.0011 µM (active) | 0.0577 µM (active) | 0.017 µM (active) | 0.00849 µM (active) | 0.00519 µM (active) | 0.00521 µM (active) | 0.00859 µM (active) | 0.0724 µM (active) | 0.00283 µM (active) | 0.203 µM (active) | 0.00624 µM (active) | 0.00225 µM (active) | 0.0294 µM (active) | 0.0479 µM (active) | 0.000774 µM (active) |  |
| O=C1NC(NCc2ccc(F)cc2)=N/C1=C\c1ccccc1Cl | 16.8 µM (inactive) | 19.9 µM (inactive) | 16.8 µM (inactive) | 17.8 µM (inactive) | 12.9 µM (inactive) | 19.8 µM (inactive) | 14.4 µM (inactive) | 19.2 µM (inactive) | 14.5 µM (inactive) | 11.9 µM (inactive) |  | 20.1 µM (inactive) | 13.8 µM (inactive) |  | 16.5 µM (inactive) | 30.5 µM (inactive) | 25 µM (inactive) | 14.8 µM (inactive) | 14.1 µM (inactive) | 16.8 µM (inactive) |
| N#Cc1nsnc1-c1nc(-c2nsnc2C#N)nc(-c2nsnc2C#N)n1 | > 100 µM (inactive) | > 100 µM (inactive) | > 100 µM (inactive) | > 100 µM (inactive) | > 100 µM (inactive) | > 100 µM (inactive) | > 100 µM (inactive) | > 100 µM (inactive) | > 100 µM (inactive) | > 100 µM (inactive) |  | > 100 µM (inactive) | > 100 µM (inactive) | > 100 µM (inactive) | > 100 µM (inactive) | 37.7 µM (inactive) | > 100 µM (inactive) | > 100 µM (inactive) | > 100 µM (inactive) | > 100 µM (inactive) |
| CCOc1ccccc1/N=C\c1c2ccccc2cc2ccccc12 | 25.8 µM (inactive) | 22.1 µM (inactive) | 27 µM (inactive) | 27.2 µM (inactive) | 11.6 µM (inactive) | 18.1 µM (inactive) | 23.8 µM (inactive) | 22.8 µM (inactive) | 18.4 µM (inactive) | 17.3 µM (inactive) | 9.29 µM (inactive) | 23.1 µM (inactive) |  | 18.6 µM (inactive) | 24.7 µM (inactive) | 15.3 µM (inactive) | 29.9 µM (inactive) | 22.4 µM (inactive) | 15.2 µM (inactive) |  |
| C[C@]12CCC(N3CCCC3)CC1=CC[C@@H]1[C@@H]2CC[C@]2(C)C(O)[C@H](n3ccnc3)C[C@@H]12 (stereo partly drawn) | 53.8 µM (inactive) | > 100 µM (inactive) | > 100 µM (inactive) | > 100 µM (inactive) | 14.2 µM (inactive) | > 100 µM (inactive) | 61.2 µM (inactive) | 59.8 µM (inactive) | 38.1 µM (inactive) | 27.2 µM (inactive) | 15.7 µM (inactive) | > 100 µM (inactive) | 49.9 µM (inactive) | 44.6 µM (inactive) | 32.3 µM (inactive) | > 10 µM (inactive) | 42.6 µM (inactive) | 46.5 µM (inactive) | 15.3 µM (inactive) |  |
| CCOC(=O)N1CCNCCN(C(=O)OCC)CCNCC1 | > 100 µM (inactive) | > 100 µM (inactive) | > 100 µM (inactive) | > 100 µM (inactive) | > 100 µM (inactive) | > 100 µM (inactive) | > 100 µM (inactive) | > 100 µM (inactive) | > 100 µM (inactive) | > 100 µM (inactive) | > 100 µM (inactive) | > 100 µM (inactive) | > 100 µM (inactive) | > 100 µM (inactive) | > 100 µM (inactive) | > 100 µM (inactive) | > 100 µM (inactive) | > 100 µM (inactive) | > 100 µM (inactive) |  |
| c1cc2cc(c1)CN1CCNCCN(CCNCC1)Cc1cccc(c1)CN1CCNCCN(CCNCC1)C2 | > 100 µM (inactive) | > 100 µM (inactive) | > 100 µM (inactive) | > 100 µM (inactive) | > 100 µM (inactive) | > 100 µM (inactive) | > 100 µM (inactive) | > 100 µM (inactive) | > 100 µM (inactive) | > 100 µM (inactive) |  | > 100 µM (inactive) |  | > 100 µM (inactive) | > 100 µM (inactive) | > 100 µM (inactive) | > 100 µM (inactive) | > 100 µM (inactive) | 78 µM (inactive) | > 100 µM (inactive) |
| O=c1[nH]/c(=C/c2ccc(OCc3ccccc3)cn2)c(=O)[nH]/c1=C/c1cccnc1 | 1.39 µM (inactive) | 0.585 µM (active) | 0.209 µM (active) | 1.92 µM (inactive) | 0.361 µM (active) | 1.65 µM (inactive) | 1.08 µM (active) | 0.908 µM (active) | 0.342 µM (active) | 0.318 µM (active) | 0.537 µM (active) | 0.345 µM (active) | 0.182 µM (active) |  | 0.23 µM (active) | 0.526 µM (active) | 0.41 µM (active) | 0.417 µM (active) | 0.5 µM (active) | 0.25 µM (active) |
| COc1cc2nc(Cl)nc(NS(=O)(=O)c3cc4ccccc4s3)c2cc1OC | 19.6 µM (inactive) | 21.3 µM (inactive) | 16.4 µM (inactive) | 24.9 µM (inactive) |  | 25 µM (inactive) | 33 µM (inactive) | 27 µM (inactive) | 30.2 µM (inactive) | 18.2 µM (inactive) | 12.1 µM (inactive) | 39.8 µM (inactive) | 31.3 µM (inactive) | 16.4 µM (inactive) | 19 µM (inactive) | 40.6 µM (inactive) | 32.5 µM (inactive) | 29.6 µM (inactive) | 23.4 µM (inactive) | 32 µM (inactive) |
| CC(C)=CCC[C@@H](C)C1=C(O)C(=O)C(C)=C(Nc2ccccc2)C1=O | 52.4 µM (inactive) | 24.2 µM (inactive) | 20 µM (inactive) | 22.5 µM (inactive) | 6.82 µM (inactive) | 24.2 µM (inactive) | 9.18 µM (inactive) | 17.8 µM (inactive) | 18.1 µM (inactive) | 13.2 µM (inactive) | 1.62 µM (inactive) | 4.03 µM (inactive) |  | 14.5 µM (inactive) | 9.2 µM (inactive) | 31.8 µM (inactive) | 13.3 µM (inactive) | 23.9 µM (inactive) | 28 µM (inactive) | 17.8 µM (inactive) |
| COc1cc([N+](=O)[O-])c(S(=O)(=O)O)cc1NS(=O)(=O)c1ccc(C)cc1 | > 100 µM (inactive) | > 100 µM (inactive) | > 100 µM (inactive) | > 100 µM (inactive) | > 100 µM (inactive) | > 100 µM (inactive) | > 100 µM (inactive) | > 100 µM (inactive) | > 100 µM (inactive) | > 100 µM (inactive) | > 100 µM (inactive) | > 100 µM (inactive) | > 100 µM (inactive) | > 100 µM (inactive) | > 100 µM (inactive) | > 100 µM (inactive) | > 100 µM (inactive) | > 100 µM (inactive) | > 100 µM (inactive) |  |
| C=C[C@]1(O)CCC[C@]2(C)C(=O)CCC12C (stereo partly drawn) | > 100 µM (inactive) | > 100 µM (inactive) | > 100 µM (inactive) | > 100 µM (inactive) | > 100 µM (inactive) | > 100 µM (inactive) | > 100 µM (inactive) | > 100 µM (inactive) | > 100 µM (inactive) | > 100 µM (inactive) |  | > 100 µM (inactive) | > 100 µM (inactive) | > 100 µM (inactive) | > 100 µM (inactive) | > 100 µM (inactive) | > 100 µM (inactive) | > 100 µM (inactive) | > 100 µM (inactive) | > 100 µM (inactive) |
| O=c1cc(-c2ccccc2F)[nH]c2cc3c(cc12)OCO3 | 1.31 µM (inactive) | 0.0399 µM (active) | 0.0724 µM (active) | 0.29 µM (active) | 0.245 µM (active) |  | 0.265 µM (active) | 0.118 µM (active) | 0.0489 µM (active) | 0.0628 µM (active) | 0.129 µM (active) | 0.035 µM (active) | 0.0402 µM (active) | 0.711 µM (active) | 0.0341 µM (active) | 0.0728 µM (active) | 0.107 µM (active) | 0.281 µM (active) | 0.0147 µM (active) | 0.053 µM (active) |
| CC(=O)N(C)SCC(NC(=O)C(Cc1ccccc1)NC(=O)OCC1c2ccccc2-c2ccccc21)C(=O)NC(Cc1ccccc1)C(=O)NC(Cc1cn(C=O)c2ccccc12)C(=O)NC(CCCCNC(=O)OCC1c2ccccc2-c2ccccc21)C(=O)NC(C(=O)NC(CSN(C)C(C)=O)C(=O)NC(C(N)=O)C(C)O)C(C)O (stereo not drawn) (Fmoc-F[X31]FW(For)K(Fmoc)T[X31]T-NH2; configuration not given here) | > 100 µM (inactive) | > 100 µM (inactive) |  | 14.9 µM (inactive) | > 100 µM (inactive) | 84.9 µM (inactive) | > 100 µM (inactive) | 66.4 µM (inactive) | 77.8 µM (inactive) | > 100 µM (inactive) | > 100 µM (inactive) | > 100 µM (inactive) | 89.7 µM (inactive) | 16.2 µM (inactive) | > 100 µM (inactive) | > 100 µM (inactive) | 33.5 µM (inactive) | > 100 µM (inactive) | 76.9 µM (inactive) | > 100 µM (inactive) |
